Data taken from US20160272935A1, “Method of improving the yield of algae production” (RELIANCE INDUSTRIES LIMITED, priority 2013, published 2016).

Columns and labels:
[1] = test system: diatoms; experiment: Mixed algae/diatom culture with urea cycle pathway inhibitor, cellometer cell count: diatoms; type: cell-based; settings: 1 mM inhibitor
Procedure: (§1) A control was established containing equal quantities of algae and diatoms. Similarly a test was also established containing the same equal quantities of algae and diatoms along with 1 mM of urea cycle pathway inhibitor namely, Saccharopine.
(§2) At Day 1 using a cellometer technique the cell counts of algae and diatoms in both the control and the test was carried out.
(§3) Both the control and the test were then incubated for 4 days in similar optimum conditions with periodic checking for cell counts in both the control and the test vessels.
(§4) The diatom and the algal cell count was then determined using the cellometer technique at the end of 4th day.

[2] = test system: diatoms and algae; experiment: Similar trials with other urea cycle pathway inhibitors in mixed environment of diatoms and algae; settings: no details given
[3] = test system: algae; experiment: Mixed algae/diatom culture with urea cycle pathway inhibitor, cellometer cell count: algae; type: cell-based; settings: 1 mM inhibitor
Procedure: as §1, §2, §3, §4

[4] = test system: algae; experiment: Pond (natural habitat) trial with urea cycle pathway inhibitor, cellometer cell count: algae; settings: 25 mM added to pond, end of 2 month span; day 1 count 1000 cells/meter
Procedure: (§5) Another experiment was carried out in a natural habitat i.e. a pond consisting of a mixed environment of algae and diatoms. At Day 1 using a cellometer technique the cell counts of algae and diatoms was carried out.
(§6) A urea cycle pathway inhibitor, namely Tris 25 mM was added to the pond.
(§7) Periodic cell count readings were carried out for a span of two months. The diatom and the algal cell count were then determined using the cellometer technique at the end of the 2 month span.

[5] = test system: diatoms; experiment: Pond (natural habitat) trial with urea cycle pathway inhibitor, cellometer cell count: diatoms; design: species or system diatom; settings: 25 mM added to pond
Procedure: as §5, §6, §7

## N[C@@H](CCCCN[C@@H](CCC(=O)O)C(=O)O)C(=O)O [Saccharopine]
[1]; after 4 days incubation, control 842, day 1 count 200
  Day 4 (Cell Count) Inhibitor Diatom: 62
[1]; day 4
  Diatom cell count reduction from day 1: 69%
[1]; initial count at day 1
  Day 1 (Cell count) Inhibitor Diatom: 200
[2]
  Outcome of similar trials (diatom inhibition and algal growth): equally successful results
[3]; after 4 days incubation, control 119, day 1 count 100
  Day 4 (Cell Count) Inhibitor Algae: 450
[3]; initial count at day 1
  Day 1 (Cell count) Inhibitor Algae: 100

## NC(CO)(CO)CO [Tris]
[2]
  Outcome of similar trials (diatom inhibition and algal growth): equally successful results
[4]
  Cell count at Day 60 Algae: 5300 cells/meter
[5]; 2 months
  Diatom cell count of the pond reduced, as compared to the cell count of diatoms on Day 1: 71%
[5]; end of 2 month span, day 1 count 2000 cells/meter
  Cell count at Day 60 Diatom: 580 cells/meter

## N [ammonia]
[2]
  Outcome of similar trials (diatom inhibition and algal growth): equally successful results

## O=S(=O)(O)CCN1CCN(CCO)CC1 [hepes]
[2]
  Outcome of similar trials (diatom inhibition and algal growth): equally successful results

## NCCCC[C@H](N)C(=O)O [lysine]
[2]
  Outcome of similar trials (diatom inhibition and algal growth): equally successful results

## CCCCCCCCCCCCCCCC(=O)SCCNC(=O)CCNC(=O)[C@H](O)C(C)(C)COP(=O)(O)OP(=O)(O)OC[C@H]1O[C@@H](n2cnc3c(N)ncnc32)[C@H](O)[C@@H]1OP(=O)(O)O [palmitoyl CoA]
[2]
  Outcome of similar trials (diatom inhibition and algal growth): equally successful results

## O=C([O-])c1ccccc1.[Na+] [sodium benzoate]
[2]
  Outcome of similar trials (diatom inhibition and algal growth): equally successful results
